US6498195B2, “Use of 1-propanone-1-(2,4-dihydroxyphenyl)-3-hydroxy-3-(4′-hydroxyphenyl) as an anticarcinogenic agent” (Rutgers, The State University of New Jersey, priority 2000, dated 2002)
Where two headings read alike, the source gives them in different places.

Tests used:
bcl-2 = test: Bcl-2 expression and phosphorylation assay (Western blot mobility shift); format: cell-based; conditions: for bcl-2 phosphorylation: immunoblotting, slower migrating band vs vehicle control, cell line not stated
Protocol: Analysis of bcl-2 protein expression was performed using a Western blot assay as previously described (Haldar, S. et al. 1996. Cancer Res. 56:1253; Haldar, S. et al. 1995. Proc. Natl. Acad. Sci. USA 92:4507-4511). Protein identification was made using a monoclonal bcl-2 primary antibody (DAKO Corporation) and secondary goat anti-mouse horseradish peroxidase conjugated antibody (Bio-Rad Laboratories, Richmond, CA). The phosphorylation of bcl-2 was determined by mobility shifts in the Western bolt as described by Haldar (Haldar, S. et al. 1996. Cancer Res. 56:1253; Haldar, S. et al. 1995. Proc. Natl. Acad. Sci. USA 92:4507-4511).

microtubule structure [1] = test: Microtubule assay (indirect immunofluorescence); format: cell-based
Protocol: Microtubule structure was assessed by indirect immunofluorescence as previously described (Zhang, C. C. et al. 1998. Oncogene 16:1617-1624). Cells were grown on coverslips and fixed in ice-cold methanol at −20° C. after drug treatment. The cells were then incubated with a 1:100 dilution of monoclonal anti-alpha-tubulin antibody (Clone DM 1A, mouse ascites fluid; Sigma) in 3% BSA in PBS for 30 minutes and washed in 3% BSA in PBS for 10 minutes. This was followed by incubation with FITC-goat anti-mouse IgG (1:50 dilution) as a secondary antibody for 30 minutes and washed in 3% BSA/PBS and visualized under a epifluorescent microscope (Zeiss AXIOSKOP) using a plan-NEOFLUAR 100 X oil immersion objective. The photographs were captured on a cooled CCD camera (DAGE-MTI) using Scion Image.

MCF-7 cells = test system: MCF-7 cells
Protocol: The Apoalert Annexin V-EGFP method (CLONTECH, Palo Alto, Calif.) was used to assess for apoptosis. Briefly, tumor cells were treated for 2 hours and cells were washed with fixing solution and stained with Annexin V-EGFP and propidium iodide for 15 minutes in the dark. Cells were viewed using a Nikin Eclipse TE-200 (Nikon Corporation, Tokyo, Japan) inverted fluorescent microscope. Photographs were captured using a SPOT digital camera (Diagnostic, Inc., Sterling Heights, Mich.) in combination with SPOT […] (Pharmingen, San Diego, Calif.). Cells (1×10^6 per dish) were treated for 12 hours, washed with PBS, and fixed in 1% paraformaldehyde in ice for 30 minutes. After fixation, cells were washed twice with PBS and fixed in 70% ethanol. The pellets were washed and resuspended in 50 μl of the DNA labeling solution containing Br-dUTP and TdT enzyme and incubated for 60 minutes at 37° C. After incubation, the pellets were washed, incubated with FITC labeled anti-BrdU antibody in the dark for 30 minutes at room temperature, and stained with propidium iodide and RNase. The stained cells were analyzed by flow cytometry after 30 minutes. Cell viability was assessed by the tetrazolium dye method as previously described (Scudiero, D.A. et al. 1988. Cancer Res. 48:4827-4833).

MCF-7 tumor cells = test: Cell cycle analysis by flow cytometry; format: cell-based
Protocol: Cells were treated for 24 hours, incubated with 10 μM BrdU for 45 minutes at 37° C. Cells were then washed with ice-cold PBS, resuspended in 200 μl PBS and fixed with cold 70% ethanol. The cells were resuspended, incubated for 30 minutes in 2 N HCl/0.5% Triton X-100 in PBS, and neutralized by rinsing once in 0.1 M sodium tetraborate (pH 8.5). Fluorescein isothiocyanate (FITC)-conjugated anti-BrdU antibody (Becton Dickinson) was added (10 μg/sample) in 50 μl of 0.5% Tween 20/1% BSA in PBS and incubated for 30 minutes. The cells were washed and resuspended in 1 ml of PBS containing 5 μg/ml propidium iodide. Fluorescence intensity was determined by quantitative flow cytometry and profiles were generated on a Becton Dickinson FACScan. A minimum of 10,000 cells were analyzed.

microtubule structure [2] = conditions: stated as 'has been shown'; cited from earlier work

With `O=C(CC(O)c1ccc(O[C@@H]2O[C@H](CO)[C@@H](O)[C@H](O)[C@H]2O)cc1)c1ccc(O)cc1O` (single isomer, unassigned; peak 1) [peak 1, 1-propanone-1-(2,4-dihydroxyphenyl)-3-hydroxy-3-(4′-hydroxyphenyl-4′o-beta-D-glucapyranoside)] as the molecule, how does the bcl-2 phosphorylation (bcl-2) read?
The bcl-2 phosphorylation was “induce bcl-2 phosphorylation”.

For `O=C(CC(O)c1ccc(O)cc1)c1ccc(O[C@@H]2O[C@H](CO)[C@@H](O)[C@H](O)[C@H]2O)cc1O` (single isomer, unassigned; peak 2) [peak 2, 1-propanone-1-(2,4-dihydroxyphenyl-4′-o-beta-D-glucopyranoside)-3-hydroxy-3-(4′-hydroxyphenyl)], which bcl-2 phosphorylation (bcl-2) is on record?
Its bcl-2 phosphorylation is “induce bcl-2 phosphorylation”.

Which “phosphorylation of bcl-2” value (bcl-2; DUPro-1 tumor cells) does the source give for `O=C(CC(O)c1ccc(O)cc1)c1ccc(O)cc1O` (stereo not shown) [DC, 1-propanone-1-(2,4-dihydroxyphenyl)-3-hydroxy-3-(4′-hydroxyphenyl)] here?
The value was “induce phosphorylation of bcl-2”.

And the “phosphorylation of bcl-2” value (bcl-2; MCF-7 tumor cells)?
The value was “induce phosphorylation of bcl-2”.

And the bcl-2 phosphorylation (bcl-2)?
The bcl-2 phosphorylation was “induce bcl-2 phosphorylation”.

And the “effect on microtubule structure” value (microtubule structure [1])?
Its value is “induce microtubule fragmentation”.

And the IC50 (MCF-7 cells; read-out: IC50, decrease of cell viability, 72 hours)?
Its IC50 is 13 µM.

And the “apoptosis (extracellular phosphatidylserine detection)” value (MCF-7 cells; similar to 10 μM camptothecin control)?
Its value is “induced apoptosis”.

What about the “G2/M cell cycle arrest” value (MCF-7 tumor cells) of the same molecule?
Its value is “induced a G2/M cell cycle arrest”.

For `CC(=O)O[C@H]1C(=O)[C@@]2(C)[C@H]([C@H](OC(=O)c3ccccc3)[C@]3(O)C[C@H](OC(=O)[C@H](O)[C@@H](NC(=O)c4ccccc4)c4ccccc4)C(C)=C1C3(C)C)[C@]1(OC(C)=O)CO[C@@H]1C[C@@H]2O` [paclitaxel], which “effect on microtubule structure” value (microtubule structure [2]) is on record?
The value was “induce microtubule bundles”.
